Experimental data reported in PubChem BioAssay AID1963873 (Molecular Pharmacology Branch, DTP, NCI, 2024).
pIC50: −log10 of the molar value.

Tested on: 276233-004-R-J1-PDC KRAS spheroids with HUVEC/MSC, viability
Experiment: Anticancer human tumor 276233-004-R-J1-PDC patient-derived colon adenocarcinoma cell line growth inhibition [KRAS2]
Conditions: for pIC50: curve of first compound; for viability, T/C: stronger effect = lower value
Outline: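 KRAS-mutant tumor cells were grown as spheroids with HUVEC endothelial cells and human MSCs as stroma. Targeted agents were tested alone and with KRAS pathway inhibitors. Doses started at or near clinical Cmax, or 10 microM, descending half-log.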

[1] = second compound 0.1 µM, first compound 0.0316 µM
[2] = second compound 0.1 µM, first compound 0.1 µM
[3] = second compound 0.1 µM, first compound 0.316 µM
[4] = second compound 0.1 µM, first compound 1 µM
[5] = second compound 0.1 µM, first compound 3.16 µM
[6] = second compound 0.1 µM, first compound 10 µM
[7] = second compound 0.316 µM, first compound 0.0316 µM
[8] = second compound 0.316 µM, first compound 0.1 µM
[9] = second compound 0.316 µM, first compound 0.316 µM
[10] = second compound 0.316 µM, first compound 1 µM
[11] = second compound 0.316 µM, first compound 3.16 µM
[12] = second compound 0.316 µM, first compound 10 µM
[13] = second compound 1 µM, first compound 0.0316 µM
[14] = second compound 1 µM, first compound 0.1 µM
[15] = second compound 1 µM, first compound 0.316 µM
[16] = second compound 1 µM, first compound 1 µM
[17] = second compound 1 µM, first compound 3.16 µM
[18] = second compound 1 µM, first compound 10 µM
[19] = second compound 3.16 µM, first compound 0.0316 µM
[20] = second compound 3.16 µM, first compound 0.1 µM
[21] = second compound 3.16 µM, first compound 0.316 µM
[22] = second compound 3.16 µM, first compound 1 µM
[23] = second compound 3.16 µM, first compound 3.16 µM
[24] = second compound 3.16 µM, first compound 10 µM
[25] = second compound 10 µM, first compound 0.0316 µM
[26] = second compound 10 µM, first compound 0.1 µM
[27] = second compound 10 µM, first compound 0.316 µM
[28] = second compound 10 µM, first compound 1 µM
[29] = second compound 10 µM, first compound 3.16 µM
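Also: cells exposed to agents for seven days before viability read.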
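For viability, T/C in this document: 100% = DMSO vehicle control wells and lower values mean fewer viable cells.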

SMILES | pIC50 (second compound 0.1 µM) | pIC50 (second compound 0.316 µM) | pIC50 (second compound 1 µM) | pIC50 (second compound 3.16 µM) | viability, T/C [1] [%] | viability, T/C [2] [%] | viability, T/C [3] [%] | viability, T/C [4] [%] | viability, T/C [5] [%] | viability, T/C [7] [%] | viability, T/C [8] [%] | viability, T/C [9] [%] | viability, T/C [10] [%] | viability, T/C [11] [%] | viability, T/C [13] [%] | viability, T/C [14] [%] | viability, T/C [15] [%] | viability, T/C [16] [%] | viability, T/C [17] [%] | viability, T/C [19] [%] | other results
CC(C)NCC(C(=O)N1CCN(c2ncnc3c2C(C)CC3O)CC1)c1ccc(Cl)cc1 (stereo not given) + C=CC(=O)N1CCN(c2nc(OCC3CCCN3C)nc3c2CCN(c2cccc4cccc(C)c24)C3)CC1CC#N | < 5.00 | < 5.00 | < 5.00 | > 7.50 | 80.6 | 81.7 | 67.6 | 64.6 | 85.4 | 66.8 | 81.4 | 72.8 | 65.5 | 63.2 | 60.4 | 65.6 | 65 | 61.9 | 64.8 | 37.6 | pIC50 (second compound 0.0316 µM): < 5.00; viability, T/C (second compound 0.0316 µM, first compound 0.0316 µM): 97.3%; viability, T/C (second compound 0.0316 µM, first compound 0.1 µM): 93.5%; viability, T/C (second compound 0.0316 µM, first compound 0.316 µM): 84.8%; viability, T/C (second compound 0.0316 µM, first compound 1 µM): 63.7%; viability, T/C (second compound 0.0316 µM, first compound 3.16 µM): 66.3%; viability, T/C (second compound 0.0316 µM, first compound 10 µM): 64.9%; viability, T/C [6]: 76.9%; viability, T/C [12]: 58.7%; viability, T/C [18]: 58.4%; viability, T/C [20]: 46.9%; viability, T/C [21]: 44%; viability, T/C [22]: 22%; viability, T/C [23]: 32%; viability, T/C [24]: 27.3%
CC(=O)OC12COC1CC(O)C1(C)C(=O)C(O)C3=C(C)C(OC(=O)C(O)C(NC(=O)OC(C)(C)C)c4ccccc4)CC(O)(C(OC(=O)c4ccccc4)C21)C3(C)C (stereo not given) + CNCc1ccccc1-c1csc(C(C)Nc2nc(C)nc3cc(OC)c(OC)cc23)c1 | < 5.50 | < 5.50 | < 5.50 | 7.67 | 96.3 | 83.4 | 81.1 | 105 | 87.5 | 86.1 | 77 | 87.8 | 93.8 | 95.7 | 91.4 | 89.9 | 111 | 119 | 117 | 0.58 | pIC50 (second compound 10 µM): > 8.00; viability, T/C (second compound 0.1 µM, first compound 0.01 µM): 102%; viability, T/C (second compound 0.316 µM, first compound 0.01 µM): 92%; viability, T/C (second compound 1 µM, first compound 0.01 µM): 103%; viability, T/C (second compound 3.16 µM, first compound 0.01 µM): 105%; viability, T/C [20]: 5.25%; viability, T/C [21]: 1.73%; viability, T/C [22]: 1.78%; viability, T/C [23]: 104%; viability, T/C (second compound 10 µM, first compound 0.01 µM): 4.38%; viability, T/C [25]: 2.71%; viability, T/C [26]: 6.51%; viability, T/C [27]: 1.17%; viability, T/C [28]: 110%; viability, T/C [29]: 0.46%
COc1cc2nccc(Oc3ccc(NC(=O)C4(C(=O)Nc5ccc(F)cc5)CC4)cc3)c2cc1OC + COc1cc2nc(C)nc(NC(C)c3cc(N)cc(C(F)(F)F)c3)c2cc1OC1CCOC1 | < 5.00 | < 5.00 | < 5.00 | < 5.00 | 74.9 | 98.7 | 87.2 | 92 | 78.9 | 85.9 | 80.8 | 111 | 99.7 | 79.3 | 84.7 | 85.7 | 88.6 | 71.4 | 60.2 | 75.8 | pIC50 (second compound 10 µM): > 7.50; viability, T/C [6]: 98.8%; viability, T/C [12]: 101%; viability, T/C [18]: 110%; viability, T/C [20]: 81.1%; viability, T/C [21]: 103%; viability, T/C [22]: 60.8%; viability, T/C [23]: 44.2%; viability, T/C [24]: 98.3%; viability, T/C [25]: 22.5%; viability, T/C [26]: 17.7%; viability, T/C [27]: 19.5%; viability, T/C [28]: 11.5%; viability, T/C [29]: 1.3%; viability, T/C (second compound 10 µM, first compound 10 µM): 26.8%
